1 compound from patent publication US20260232699A1, “COMPOSITIONS OF A CANNABINOID AND A KINASE INHIBITOR FOR THE TREATMENT OF CANCER” (SINOVEDA CANADA INC., priority 2023, published 2026) can be followed below.

The structures appear in SMILES notation. Where two headings read alike, the source gives them in different places.

Assay [1] has as its system HCC PDX models 575, 658, and LI-011. In words: Clonogenic assay on patient-derived xenograft tumor cells. In kind it is cell-based. To be noted: Homo sapiens, 336 h; 575, 658, LI-011; 14 days continuous exposure; P=0.023; read-out: IC50 values, all PDX models examined. How it is done: Tumor xenografts (patient-derived: 575, […], and LI-011; as well as cell line-derived: HepG2) were passaged as subcutaneous xenografts in NMRI nu/nu mice. Once tumor volumes reached 600-1000 mm^3, tumors were harvested according to FELASA and GV-SOLAS animal welfare guidelines. Tumors were mechanically disaggregated and subsequently incubated with collagenase type IV (41 U/mL), DNase I (125 U/mL), hyaluronidase type III (100 U/mL), and dispase II (1 U/mL) in RPMI 1640 medium at 37° C. for 60-120 minutes. Cells were filtered through 100 μm and 40 μm mesh size sieves and washed with the same media devoid of enzymes and stored in liquid nitrogen vapor phase.
The clonogenic assay was carried out in 96 well, ultra-low attachment plates. Frozen aliquots of tumor cells were prepared from HepG2 HCC cells and the three tumor xenografts described above. Cells were thawed in Iscove's Modified Dulbecco's Medium (IMDM), supplemented with 20% (v/v) fetal calf serum, 50 μg/ml gentamicin, 1% ethanol, and 0.4% (w/v) agar prior to use. Test wells were first layered with 100 μl of the same soft-agar medium followed by 50 μl of media with tumor cells. Following solidification, the soft-agar layer was covered with 90 μl of the same culture medium without agar. After 24 hours, 10 μl of test compounds or control medium were added and left for 14 days (continuous exposure, 100 μl drug overlay). […]

The next assay relates to HepG2 cells. The assay is described as follows: HepG2 cell proliferation assay (XTT). Particulars: Homo sapiens. In kind it is cell-based, human. The procedure: HepG2 cells were obtained from the American Type Culture Collection (ATCC). Normal hepatocyte pool of cells was acquired from Xenotech. Cryopreserved cells in DMEM containing 5% DMSO were thawed and diluted 10-fold in phenol red free DMEM media containing 10% fetal bovine serum, 100 μg/ml penicillin/streptomycin, supplemented with Glutamax™ and sodium pyruvate. Subsequently, cells were centrifuged at 20 g for 10 minutes. The cells were resuspended in the same media with added Revitacell® to a concentration of […]. Ninety-six well cell culture treated flat bottom plates were seeded with 7.5×10^3 cells in 100 μl and incubated at 37° C., 7.5% CO2, >95% relative humidity for 18 hours to allow cellular adhesion after which media was replaced with like media (DMEM, IMDM, Williams E) containing 1 to 20% FBS and various test compounds (10 μg/ml to 100 ng/ml). After 48 hours (2 doublings of cells), sodium; 2-(2-methoxy-4-nitro-5-sulfonatophenyl)-3-(2-methoxy-4-nitro-5-sulfophenyl)-N-phenyltetrazol-3-ium-5-carboximidate (XTT) (300 μg/ml) was added, and cells incubated for 2 hours. Formazan production was measured at 450 nm on a Varioskan lux spectrophotometer. Non-specific absorption was measured at 660 nm and subtracted from the reference measurement at 450 nm. Experiments were performed in triplicates (n=3). […]
The objectives of this example are to, first, establish the procedure of a two-component interaction study; and second, establish a method of analysis to identify potential interactions among the two components/compounds. […] Following 48 hours of incubation, the IC50 values of various mixtures were obtained and compared with the pure compound's IC50 values and predicted/calculated IC50 values for the various mixtures. […]
Samples from the serial dilutions were analyzed by LC-MS/MS to orthogonally confirm concentrations. […]
To assess potential interactions, the IC50 values for individual cannabinoids in the control lanes were calculated and used to predict and IC50 value for the summation of their individual components.

Take `CNC(=O)c1cc(Oc2ccc(NC(=O)Nc3ccc(Cl)c(C(F)(F)F)c3)cc2)ccn1` [Sorafenib]: the IC50 is 14.3 µM in assay [1]; 12 µM in the assay on HepG2 cells (IMDM media with 20% FBS and 1% ethanol, read-out: predetermined IC50 concentrations); 9.8 µg/mL in the assay on HepG2 cells (XTT, DMEM media with 20% FBS, 48 hour treatment, read-out: IC50 HepG2).
